According to the NIST ThermoML archive (doi:10.1021/je200252c):
Numbers after ± are expanded uncertainties.

Assay: Molar enthalpy of transition or fusion
Settings: Crystal; DSC

c1ccc2c(c1)OP1(=NP3(=NP4(=N1)Oc1ccccc1O4)Oc1ccccc1O3)O2 [tris(o-phenylenedioxy)cyclotriphosphazene]
Molar enthalpy of transition or fusion: 4.67 ± 0.143 kcal/mol
